According to patent publication US20220400680A1, “USE OF ACYLCYANAMIDES OR SALTS THEREOF FOR REGULATING PLANT GROWTH” (Alzchem Trostberg GmbH, priority 2019, published 2022):

Columns and labels:
[1] = system: Table cherry, type Burlat (C3); test: Greenhouse test, cut cherry branches C3 dipped in test solution, bud development stage; assay type: in vivo, Prunus avium; set-up: key to Bud development stage, cherry branches C3: Stage 0: Buds unchanged; Stage 1: Buds slightly swollen, first green tips visible; Stage 2: strongly swollen, green buds; Stage 3: Buds before breaking open, leaf or flower root already visible; Stage 4: Flower buds fully developed, but still closed, white petals already visible. In the case of the grapevine, stage 4 was the unfolding of the first leaves; Stage 5: Flowers fully open or, in the case of grapevine, unfolding of the flower roots (“Gescheine”) on the fully leafed sprouts; settings: for Dormancy-breaking effect according to the definition, cherry C3: stage 4 reached or exceeded after 27 days vs negative control
Summary of the method: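 Cut branches kept in water jars in a greenhouse at about 22° C. under natural light after dipping in aqueous solution of 0.15 mol test substance (0.075 mol for bis-cyanamides) plus 0.15 g BreakThru OE-446 per 500 g. Bud development scored on a stage scale from closed buds to fully open flowers.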

[2] = system: Grape, type Pinot Noir (C4); test: Greenhouse test, cut wine sprouts C4 dipped in test solution, bud development stage; assay type: in vivo, Vitis vinifera subsp. vinifera; set-up: key to Bud development stage, wine sprouts C4: Stage 0: Buds unchanged; Stage 1: Buds slightly swollen, first green tips visible; Stage 2: strongly swollen, green buds; Stage 3: Buds before breaking open, leaf or flower root already visible; Stage 4: Flower buds fully developed, but still closed, white petals already visible. In the case of the grapevine, stage 4 was the unfolding of the first leaves; Stage 5: Flowers fully open or, in the case of grapevine, unfolding of the flower roots (“Gescheine”) on the fully leafed sprouts; settings: for Dormancy-breaking effect according to the definition, wine C4: stage 4 reached or exceeded after 36 days vs negative control
Summary of the method: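 Cut Pinot Noir grapevine sprouts were dipped in aqueous test solution (0.15 mol test substance, or 0.075 mol for bis-cyanamides, plus 0.15 g BreakThru OE-446 per 500 g total) and kept in water jars at about 22° C under natural light. Bud development was scored on a staged scale from closed buds to fully open flowers.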

[3] = system: Table apple, type Zabergäu-Renette (C2); test: Greenhouse test, cut apple branches C2 dipped in test solution, bud development stage; assay type: in vivo, Malus domestica; set-up: key to Bud development stage, apple branches C2: Stage 0: Buds unchanged; Stage 1: Buds slightly swollen, first green tips visible; Stage 2: strongly swollen, green buds; Stage 3: Buds before breaking open, leaf or flower root already visible; Stage 4: Flower buds fully developed, but still closed, white petals already visible. In the case of the grapevine, stage 4 was the unfolding of the first leaves; Stage 5: Flowers fully open or, in the case of grapevine, unfolding of the flower roots (“Gescheine”) on the fully leafed sprouts; settings: for Dormancy-breaking effect according to the definition, apple C2: stage 4 reached or exceeded after 36 days vs negative control
Summary of the method: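 Cut branches held in water jars in a greenhouse at about 22° C. under natural light after dipping in aqueous test solution: 0.15 mol substance (0.075 mol for bis-cyanamides) plus 0.15 g BreakThru OE-446 per 500 g. Bud development scored on a stage scale from closed buds to fully open flowers.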

[4] = system: Table apple, type Boiken apple (C1); test: Greenhouse test, cut apple branches C1 dipped in test solution, bud development stage; assay type: in vivo, Malus domestica; set-up: key to Bud development stage, apple branches C1: Stage 0: Buds unchanged; Stage 1: Buds slightly swollen, first green tips visible; Stage 2: strongly swollen, green buds; Stage 3: Buds before breaking open, leaf or flower root already visible; Stage 4: Flower buds fully developed, but still closed, white petals already visible. In the case of the grapevine, stage 4 was the unfolding of the first leaves; Stage 5: Flowers fully open or, in the case of grapevine, unfolding of the flower roots (“Gescheine”) on the fully leafed sprouts; settings: for Dormancy-breaking effect according to the definition, apple C1: stage 4 reached or exceeded after 36 days vs negative control
Summary of the method: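 Cut Boiken apple branches kept in water jars in a greenhouse at about 22 °C under natural light and dipped in test solution. Solutions contained 0.15 mol test substance (0.075 mol for bis-cyanamides) plus 0.15 g BreakThru OE-446 per 500 g water. Bud development scored on a stage scale up to full flowering.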

[5] = T1 (14 d), 0.15 mol (A-14, A-15: 0.075 mol) per 500 g solution

| SMILES | Bud development stage, cherry branches C3 [1, 5] | Bud development stage, cherry branches C3 ([1]; T2 (16 d)) | Bud development stage, cherry branches C3 ([1]; T3 (21 d)) | Bud development stage, cherry branches C3 ([1]; T4 (27 d)) | Bud development stage, cherry branches C3 ([1]; T5 (36 d)) | Bud development stage, cherry branches C3 ([1]; T6 (56 d)) | Bud development stage, wine sprouts C4 [2, 5] | Bud development stage, wine sprouts C4 ([2]; T2 (16 d)) | Bud development stage, wine sprouts C4 ([2]; T3 (21 d)) | Bud development stage, wine sprouts C4 ([2]; T4 (27 d)) | Bud development stage, wine sprouts C4 ([2]; T5 (36 d)) | Bud development stage, wine sprouts C4 ([2]; T6 (56 d)) | Bud development stage, apple branches C2 [3, 5] | Bud development stage, apple branches C2 ([3]; T2 (16 d)) | Bud development stage, apple branches C2 ([3]; T3 (21 d)) | Bud development stage, apple branches C2 ([3]; T4 (27 d)) | Bud development stage, apple branches C2 ([3]; T5 (36 d)) | Bud development stage, apple branches C2 ([3]; T6 (56 d)) | Bud development stage, apple branches C1 [4, 5] | Bud development stage, apple branches C1 ([4]; T2 (16 d)) | other results |
| --- | --- | --- | --- | --- | --- | --- | --- | --- | --- | --- | --- | --- | --- | --- | --- | --- | --- | --- | --- | --- | --- |
| N#CNC(=O)Cc1ccccc1.[Na] [Example A-12, Sodium phenylacetyl cyanamide] | 0 | 1 | 2 | 5 | 5 | 5 | 0 | 0 | 1 | 3 | 4 | 4 | 0 | 0 | 3 | 3 | 4 | 5 | 0 | 1 | Dormancy-breaking effect according to the definition, cherry C3 [1]: dormancy-breaking effect; Dormancy-breaking effect according to the definition, wine C4 [2]: dormancy-breaking effect; Dormancy-breaking effect according to the definition, apple C2 [3]: dormancy-breaking effect; Bud development stage, apple branches C1 ([4]; T3 (21 d)): 2; Bud development stage, apple branches C1 ([4]; T4 (27 d)): 2; Bud development stage, apple branches C1 ([4]; T5 (36 d)): 5; Bud development stage, apple branches C1 ([4]; T6 (56 d)): 5; Dormancy-breaking effect according to the definition, apple C1 [4]: dormancy-breaking effect |
| N#CNC(=O)CCC(=O)NC#N.[Na].[Na] [Example A-14, Disodium-(3-(cyano-amidocarbonyl)-propionyl-cyanamide)] | 0 | 1 | 4 | 5 | 5 | 5 | 0 | 0 | 0 | 2 | 4 | 4 | 0 | 0 | 0 | 1 | 3 | 4 | 1 | 1 | Good to very good dormancy-breaking effect, cherry C3 ([1]; stage 4 reached or exceeded after 21 days vs negative control): good to very good dormancy-breaking effect; Dormancy-breaking effect according to the definition, cherry C3 [1]: dormancy-breaking effect; Dormancy-breaking effect according to the definition, wine C4 [2]: dormancy-breaking effect; Bud development stage, apple branches C1 ([4]; T3 (21 d)): 2; Bud development stage, apple branches C1 ([4]; T4 (27 d)): 3; Bud development stage, apple branches C1 ([4]; T5 (36 d)): 5; Bud development stage, apple branches C1 ([4]; T6 (56 d)): 5; Dormancy-breaking effect according to the definition, apple C1 [4]: dormancy-breaking effect |
| N#CNC(=O)CCCCC(=O)NC#N.[Na].[Na] [Example A-15, Disodium-(5-(cyano-amidocarbonyl)-pentanoyl-cyanamide)] | 0 | 1 | 1 | 1 | 2 | 4 | 0 | 0 | 0 | 1 | 4 | 5 | 0 | 0 | 1 | 5 | 5 | 5 | 0 | 0 | Dormancy-breaking effect according to the definition, wine C4 [2]: dormancy-breaking effect; Good to very good dormancy-breaking effect, apple C2 ([3]; stage 4 reached or exceeded after 27 days vs negative control): good to very good dormancy-breaking effect; Dormancy-breaking effect according to the definition, apple C2 [3]: dormancy-breaking effect; Bud development stage, apple branches C1 ([4]; T3 (21 d)): 1; Bud development stage, apple branches C1 ([4]; T4 (27 d)): 2; Bud development stage, apple branches C1 ([4]; T5 (36 d)): 3; Bud development stage, apple branches C1 ([4]; T6 (56 d)): 4 |
| N#CN [cyanamide] | 2 | 4 | 5 | 5 | 5 | 5 | 0 | 0 | 2 | 5 | 5 | 5 | 0 | 0 | 3 | 4 | 5 | 5 | 3 | 4 | Bud development stage, apple branches C1 ([4]; T3 (21 d)): 5; Bud development stage, apple branches C1 ([4]; T4 (27 d)): 5; Bud development stage, apple branches C1 ([4]; T5 (36 d)): 5; Bud development stage, apple branches C1 ([4]; T6 (56 d)): 5 |
